Here are results for two compounds from patent publication US20180153848A1, “CABAZITAXEL FAT EMULSION, AND PREPARATION METHOD AND USE THEREOF” (JIANGSU TASLY DIYI PHARMACEUTICAL CO., LTD., priority 2015, published 2018).

Where only a bound is given, the exact number is not on record here.

Series [1] is described as follows: Investigation on the solubility of cabazitaxel in oils for injection, with low temperature challenge test. Type of series: physicochemical. Also on record: key to dissolved state in oil for injection: —: Completely insoluble. The settings on record: for dissolved state in oil for injection: 70° C. with stirring. The procedure:
In this Test Example, appropriate amounts of cabazitaxel were weighed, respectively placed into medium chain triglyceride for injection, soybean oil, olive oil, castor oil and palm oil at 70° C., and heated with stirring, to observe the dissolved state thereof. The solutions with the drug dissolved were stored at a condition of 4-6° C. for 72 hours, to perform a low temperature challenge test. The appearance changes of the solutions at 72 hours in the low temperature storage were observed.

For series [2] the following is noted: cited from earlier work.
For a further series, the system named is Beagle dogs. As to conditions: intravenous injection of 0.3% or 0.35% Tween-80; cited from earlier work.

With `CO[C@H]1C(=O)[C@]2(C)[C@@H](OC)C[C@H]3OC[C@@]3(OC(C)=O)[C@H]2[C@H](OC(=O)c2ccccc2)[C@]2(O)C[C@H](OC(=O)[C@H](O)[C@@H](NC(=O)OC(C)(C)C)c3ccccc3)C(C)=C1C2(C)C` [cabazitaxel, 4-acetyloxy-2α-benzoyloxy-5β,20-epoxy-1-hydroxy-7β, 10β-dimethoxy-9-oxotax-11-en-13 α-yl(2R,3S)-3-t-butoxycarbonylamino-2-hydroxy-3-phenylpropionate], the “solubility in medium chain triglycerides” value in series [1] was “about 50 mg/g”. For the same compound, the “solubility in medium chain triglyceride for injection” value in series [1] (after storage at low temperature (4-6° C.) for 72 h) was “about 50 mg/g”. Besides, the “dissolved state in oil for injection” value in series [1] (castor oil, Concentration (mg/g) 10 h) is recorded as “cannot be fully dissolved”; in series [1] (castor oil, Concentration (mg/g) 20 h), “—”; in series [1] (castor oil, Concentration (mg/g) 30 h), “—”; in series [1] (castor oil, Concentration (mg/g) 40 h) it was “—”; in series [1] (castor oil, Concentration (mg/g) 50 h), “—”; in series [1] (castor oil, Concentration (mg/g) 60 h), “—”. For the same compound, the “dissolved state in oil for injection” value is given as “rapidly dissolved” in series [1] (medium chain triglyceride, Concentration (mg/g) 60 h); “cannot be fully dissolved” in series [1] (olive oil, Concentration (mg/g) 10 h); “—” in series [1] (olive oil, Concentration (mg/g) 20 h); “—” in series [1] (olive oil, Concentration (mg/g) 30 h); “—” in series [1] (olive oil, Concentration (mg/g) 40 h); “—” in series [1] (olive oil, Concentration (mg/g) 50 h). The “dissolved state in oil for injection” value in series [1] (olive oil, Concentration (mg/g) 60 h) is given as “—”; in series [1] (palm oil, Concentration (mg/g) 10 h) it was “cannot be fully dissolved”; in series [1] (palm oil, Concentration (mg/g) 20 h) it was “—”; in series [1] (palm oil, Concentration (mg/g) 30 h), “—”; in series [1] (palm oil, Concentration (mg/g) 40 h), “—”; in series [1] (palm oil, Concentration (mg/g) 50 h), “—”. Moreover, the “dissolved state in oil for injection” value in series [1] (palm oil, Concentration (mg/g) 60 h) is listed as “—”; in series [1] (soybean oil, Concentration (mg/g) 10 h), “cannot be fully dissolved”; in series [1] (soybean oil, Concentration (mg/g) 20 h), “—”; in series [1] (soybean oil, Concentration (mg/g) 30 h), “—”; in series [1] (soybean oil, Concentration (mg/g) 40 h), “—”; in series [1] (soybean oil, Concentration (mg/g) 50 h), “—”. In addition, in series [1] (soybean oil, Concentration (mg/g) 60 h), the “dissolved state in oil for injection” value is listed as “—”. In addition, the “solubility in long chain oils” value in series [1] (long chain oils such as soybean oil, olive oil, castor oil, palm oil) is reported as “less than 10 mg/g”. Also, the “solubility in ethanol and other organic solvents” value in series [2] was “soluble”. Further, the solubility in water result in series [2] is recorded as “almost insoluble”.
Regarding Tween-80, the “grade of allergic reactions” value in the series on Beagle dogs was no less than 3.
